For data set [1], the target named is Epidermal growth factor receptor (Homo sapiens, UniProt P00533, L858R).
Data set [2] addresses T1, Insulin-like growth factor 1 receptor (Homo sapiens, UniProt P08069). Nature of the data set: Inhibition of IGF1R by time resolved fluorescence assay.
The target in data set [3] is T2, Receptor tyrosine-protein kinase erbB-2 (Homo sapiens, UniProt P04626). Kind of data set: Inhibition of ErbB2 by time resolved fluorescence assay.
The target in data set [4] is T2, Receptor tyrosine-protein kinase erbB-2. Kind of data set: Inhibition of ErbB2 phosphorylation in IGF1 and EGF-stimulated human N87 cells pretreated for 6 hrs before IGF1 and EGF stimulation by ELISA. Format: cell-based, NCI-N87.
The target of data set [5] is T1, Insulin-like growth factor 1 receptor. Kind of data set: Inhibition of IGF1R phosphorylation in IGF1 and EGF-stimulated human MiaPaCa2 cells pretreated for 6 hrs before IGF1 and EGF stimulation by ELISA. It counts as cell-based.
The target in data set [6] is Epidermal growth factor receptor (Homo sapiens, UniProt P00533). Nature of the data set: Inhibition of EGFR phosphorylation in IGF1 and EGF-stimulated human MiaPaCa2 cells pretreated for 6 hrs before IGF1 and EGF stimulation by ELISA. It counts as cell-based.
Sequence of Epidermal growth factor receptor (Homo sapiens, UniProt P00533) (P00533 whole entry): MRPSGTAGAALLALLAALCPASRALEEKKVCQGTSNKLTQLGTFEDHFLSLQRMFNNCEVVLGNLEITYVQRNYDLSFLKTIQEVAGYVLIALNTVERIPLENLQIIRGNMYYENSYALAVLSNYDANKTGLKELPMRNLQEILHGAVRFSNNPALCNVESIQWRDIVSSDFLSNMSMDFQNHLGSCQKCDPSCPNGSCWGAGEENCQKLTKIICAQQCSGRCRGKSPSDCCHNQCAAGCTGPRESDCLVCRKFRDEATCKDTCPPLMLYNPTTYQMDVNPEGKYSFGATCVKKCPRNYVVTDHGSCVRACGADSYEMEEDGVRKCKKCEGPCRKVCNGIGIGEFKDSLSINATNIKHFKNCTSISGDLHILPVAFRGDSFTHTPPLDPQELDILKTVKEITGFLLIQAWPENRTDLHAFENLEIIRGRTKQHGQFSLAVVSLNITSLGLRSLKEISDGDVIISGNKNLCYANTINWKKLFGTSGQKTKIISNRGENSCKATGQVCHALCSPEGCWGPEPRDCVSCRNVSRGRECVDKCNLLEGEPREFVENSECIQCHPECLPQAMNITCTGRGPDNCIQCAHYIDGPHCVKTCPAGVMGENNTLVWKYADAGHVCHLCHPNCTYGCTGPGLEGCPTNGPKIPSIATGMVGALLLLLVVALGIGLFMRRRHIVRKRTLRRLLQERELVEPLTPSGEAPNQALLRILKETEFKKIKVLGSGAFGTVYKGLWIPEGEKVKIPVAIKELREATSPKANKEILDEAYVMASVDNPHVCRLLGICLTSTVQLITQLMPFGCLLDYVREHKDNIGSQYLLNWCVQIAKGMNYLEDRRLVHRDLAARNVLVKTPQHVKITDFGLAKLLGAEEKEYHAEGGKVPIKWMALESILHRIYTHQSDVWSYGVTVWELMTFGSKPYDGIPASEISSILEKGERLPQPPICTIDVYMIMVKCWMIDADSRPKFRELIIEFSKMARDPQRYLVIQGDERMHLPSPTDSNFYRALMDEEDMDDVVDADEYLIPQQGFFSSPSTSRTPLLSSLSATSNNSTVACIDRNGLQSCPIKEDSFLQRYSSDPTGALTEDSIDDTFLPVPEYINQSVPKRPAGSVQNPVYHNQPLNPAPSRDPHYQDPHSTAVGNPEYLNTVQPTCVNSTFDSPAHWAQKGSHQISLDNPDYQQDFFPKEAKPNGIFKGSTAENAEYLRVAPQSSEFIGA
Data set [7] has as its system Mus musculus. Kind of data set: Dose normalized AUC in iv dosed mouse. The conditions noted are these: in vivo. Format: ADME, organism-based.
A short description of data set [8]: Aqueous solubility at pH 7.2. The conditions noted are these: buffer. Format: physicochemical.
For data set [9], the system named is Mus musculus. Kind of data set: Inhibition of EGFR phosphorylation in IGF1 and EGF-stimulated mouse liver at 50 mg/kg, ip pretreated 4 hrs before IGF1 and EGF stimulation. On the set-up: dose 50 mg/kg. It counts as functional, organism-based.
For data set [10], the system named is Mus musculus. Nature of the data set: Dose normalized AUC in ip dosed mouse. It counts as ADME, organism-based. The following applies: in vivo.
The target of the next data set is Cytochrome P450 2C9 (Homo sapiens, UniProt P11712). Nature of the data set: Inhibition of human CYP2C9. It counts as ADME.
The nature of data set [11]: Bioavailability in ip dosed mouse. It counts as ADME, organism-based. The following applies: in vivo.
In data set [12] the test system is Mus musculus. Kind of data set: Dose normalized AUC in po dosed mouse. Format: ADME, organism-based. The conditions noted are these: in vivo.
A further data set has as its target Cytochrome P450 3A4 (Homo sapiens, UniProt P08684). Kind of data set: Inhibition of human CYP3A4. Format: ADME.
Data set [13] is described as follows: Oral bioavailability in mouse. Format: ADME, organism-based. The following applies: in vivo.
Data set [14] is described as follows: Half life in mouse. It counts as ADME, organism-based. The conditions noted are these: in vivo.
A short description of data set [15]: Protein binding in human plasma. Format: ADME, cell-free. The conditions noted are these: read-out: PPB (converted).
Data set [16] relates to Mus musculus. Kind of data set: Inhibition of EGFR phosphorylation in IGF1 and EGF-stimulated mouse liver at 50 mg/kg, po pretreated 4 hrs before IGF1 and EGF stimulation. Format: functional, organism-based. On the set-up: dose 50 mg/kg.
Data set [17] has as its system Mus musculus. Kind of data set: Inhibition of IGF1R phosphorylation in IGF1 and EGF-stimulated mouse lung at 50 mg/kg, po pretreated 4 hrs before IGF1 and EGF stimulation. It counts as functional, organism-based. On the set-up: dose 50 mg/kg.
Another data set concerns the target Cytochrome P450 2D6 (Homo sapiens, UniProt P10635). Kind of data set: Inhibition of human CYP2D6. It counts as ADME.
For data set [18], the system named is Mus musculus. Kind of data set: Inhibition of IGF1R phosphorylation in IGF1 and EGF-stimulated mouse lung at 50 mg/kg, ip pretreated 4 hrs before IGF1 and EGF stimulation. Format: functional, organism-based. On the set-up: dose 50 mg/kg.
Data set [19] can be described thus: Clearance in mouse. The following applies: in vivo. Format: ADME, organism-based.

Structures are written as SMILES. Activity calls are given as the source filed them. No cut-off for these calls is given here.

T1 sequence (P08069 31-736 limits assumed): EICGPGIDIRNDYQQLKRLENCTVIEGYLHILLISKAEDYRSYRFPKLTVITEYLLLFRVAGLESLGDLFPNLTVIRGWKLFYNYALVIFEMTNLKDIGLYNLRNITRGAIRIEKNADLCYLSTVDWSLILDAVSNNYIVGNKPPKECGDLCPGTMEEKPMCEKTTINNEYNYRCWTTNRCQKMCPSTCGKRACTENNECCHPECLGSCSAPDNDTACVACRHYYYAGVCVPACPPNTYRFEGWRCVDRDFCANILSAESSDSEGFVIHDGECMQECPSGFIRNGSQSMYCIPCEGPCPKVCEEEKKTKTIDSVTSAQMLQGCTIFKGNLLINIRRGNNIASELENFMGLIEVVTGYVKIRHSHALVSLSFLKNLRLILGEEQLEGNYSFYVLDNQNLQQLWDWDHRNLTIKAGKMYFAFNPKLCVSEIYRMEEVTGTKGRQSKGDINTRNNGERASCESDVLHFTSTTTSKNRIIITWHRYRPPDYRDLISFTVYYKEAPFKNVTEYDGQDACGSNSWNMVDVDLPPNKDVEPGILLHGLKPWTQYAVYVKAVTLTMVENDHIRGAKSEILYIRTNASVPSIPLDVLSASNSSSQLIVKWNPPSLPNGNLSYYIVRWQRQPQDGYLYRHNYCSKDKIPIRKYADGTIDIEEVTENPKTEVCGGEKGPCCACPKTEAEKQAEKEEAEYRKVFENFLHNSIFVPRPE
T1 sequence (P08069 741-1367 limits assumed): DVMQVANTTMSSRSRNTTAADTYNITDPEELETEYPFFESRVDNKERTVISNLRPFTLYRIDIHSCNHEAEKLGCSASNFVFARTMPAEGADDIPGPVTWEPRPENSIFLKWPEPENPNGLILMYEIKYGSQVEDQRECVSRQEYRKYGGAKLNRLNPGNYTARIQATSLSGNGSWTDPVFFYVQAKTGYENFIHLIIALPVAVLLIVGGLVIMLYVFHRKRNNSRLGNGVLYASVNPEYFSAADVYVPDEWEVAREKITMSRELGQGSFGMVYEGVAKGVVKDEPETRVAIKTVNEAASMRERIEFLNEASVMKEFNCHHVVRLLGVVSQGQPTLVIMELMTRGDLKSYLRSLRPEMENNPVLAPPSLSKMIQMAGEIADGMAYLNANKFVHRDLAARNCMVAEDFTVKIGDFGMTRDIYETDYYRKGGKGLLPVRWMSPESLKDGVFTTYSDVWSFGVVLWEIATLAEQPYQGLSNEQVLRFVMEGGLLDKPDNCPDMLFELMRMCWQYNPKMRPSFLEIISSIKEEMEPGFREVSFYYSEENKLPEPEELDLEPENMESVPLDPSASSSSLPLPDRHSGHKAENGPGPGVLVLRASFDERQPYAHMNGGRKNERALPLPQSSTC
Sequence of Epidermal growth factor receptor (Homo sapiens, UniProt P00533, L858R) (P00533 25-1210 L858R limits assumed): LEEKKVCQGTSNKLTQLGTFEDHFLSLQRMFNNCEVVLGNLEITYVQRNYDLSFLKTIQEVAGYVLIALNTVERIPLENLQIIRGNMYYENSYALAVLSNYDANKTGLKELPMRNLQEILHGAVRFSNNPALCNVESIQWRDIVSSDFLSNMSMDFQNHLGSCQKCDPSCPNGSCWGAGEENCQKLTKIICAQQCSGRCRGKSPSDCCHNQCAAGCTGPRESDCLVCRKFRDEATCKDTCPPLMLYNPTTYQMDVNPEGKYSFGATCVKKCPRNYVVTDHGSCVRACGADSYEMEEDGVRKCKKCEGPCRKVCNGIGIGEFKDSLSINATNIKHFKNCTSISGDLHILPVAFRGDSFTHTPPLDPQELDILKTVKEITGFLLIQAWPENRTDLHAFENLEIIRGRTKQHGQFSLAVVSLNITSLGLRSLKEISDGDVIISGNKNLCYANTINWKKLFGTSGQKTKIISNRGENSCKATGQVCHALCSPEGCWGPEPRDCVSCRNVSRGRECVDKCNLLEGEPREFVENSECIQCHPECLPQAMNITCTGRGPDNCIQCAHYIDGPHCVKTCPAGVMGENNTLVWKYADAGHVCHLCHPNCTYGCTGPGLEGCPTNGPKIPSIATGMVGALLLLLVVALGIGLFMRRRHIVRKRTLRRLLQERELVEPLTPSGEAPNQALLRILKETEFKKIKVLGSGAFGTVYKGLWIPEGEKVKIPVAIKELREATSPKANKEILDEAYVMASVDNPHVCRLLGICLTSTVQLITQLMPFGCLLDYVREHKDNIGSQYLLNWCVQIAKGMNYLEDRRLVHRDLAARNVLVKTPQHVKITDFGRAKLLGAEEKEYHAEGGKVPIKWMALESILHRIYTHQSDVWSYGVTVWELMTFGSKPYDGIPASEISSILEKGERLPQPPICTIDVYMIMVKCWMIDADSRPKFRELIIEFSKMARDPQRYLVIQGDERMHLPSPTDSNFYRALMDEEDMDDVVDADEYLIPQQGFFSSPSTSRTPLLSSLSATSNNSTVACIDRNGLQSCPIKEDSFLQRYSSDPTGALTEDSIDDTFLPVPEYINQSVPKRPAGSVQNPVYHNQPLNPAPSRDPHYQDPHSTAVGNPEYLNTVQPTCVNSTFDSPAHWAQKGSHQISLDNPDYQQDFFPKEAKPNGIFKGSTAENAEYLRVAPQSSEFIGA
T2 sequence (P04626 whole entry): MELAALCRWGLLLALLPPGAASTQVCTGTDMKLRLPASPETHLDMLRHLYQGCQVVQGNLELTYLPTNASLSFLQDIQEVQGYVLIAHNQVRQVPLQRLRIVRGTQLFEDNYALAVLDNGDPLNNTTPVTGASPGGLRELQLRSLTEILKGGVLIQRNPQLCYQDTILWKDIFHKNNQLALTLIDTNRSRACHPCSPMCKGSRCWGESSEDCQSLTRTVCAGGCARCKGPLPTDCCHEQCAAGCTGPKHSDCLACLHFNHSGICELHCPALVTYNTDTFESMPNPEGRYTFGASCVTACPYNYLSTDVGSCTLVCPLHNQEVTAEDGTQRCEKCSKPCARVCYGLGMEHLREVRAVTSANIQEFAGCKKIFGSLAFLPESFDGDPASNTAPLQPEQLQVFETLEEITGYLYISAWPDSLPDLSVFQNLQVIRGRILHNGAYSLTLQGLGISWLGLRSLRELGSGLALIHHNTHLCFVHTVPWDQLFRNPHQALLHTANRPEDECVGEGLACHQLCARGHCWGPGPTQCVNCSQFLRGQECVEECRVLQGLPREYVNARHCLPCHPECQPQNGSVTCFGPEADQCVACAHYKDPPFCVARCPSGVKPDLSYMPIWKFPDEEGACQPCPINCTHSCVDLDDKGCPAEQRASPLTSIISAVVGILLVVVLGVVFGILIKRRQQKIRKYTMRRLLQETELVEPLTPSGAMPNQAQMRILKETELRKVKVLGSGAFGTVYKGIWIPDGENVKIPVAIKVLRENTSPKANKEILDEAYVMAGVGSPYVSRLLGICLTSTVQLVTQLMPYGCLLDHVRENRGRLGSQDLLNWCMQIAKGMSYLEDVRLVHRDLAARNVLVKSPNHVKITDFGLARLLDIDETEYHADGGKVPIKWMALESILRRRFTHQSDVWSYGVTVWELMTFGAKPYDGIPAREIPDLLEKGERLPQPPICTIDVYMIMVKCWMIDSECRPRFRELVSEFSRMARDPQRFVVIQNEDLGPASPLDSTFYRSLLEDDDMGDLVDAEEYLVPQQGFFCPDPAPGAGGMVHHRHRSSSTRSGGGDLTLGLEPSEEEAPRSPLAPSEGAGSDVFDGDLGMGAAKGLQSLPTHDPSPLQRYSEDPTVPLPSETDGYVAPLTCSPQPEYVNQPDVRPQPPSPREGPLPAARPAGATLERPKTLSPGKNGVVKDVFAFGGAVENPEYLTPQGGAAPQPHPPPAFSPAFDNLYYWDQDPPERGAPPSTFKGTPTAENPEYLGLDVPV

As to `Nc1ncnc2c1c(-c1ccc3nc(Cc4cccs4)[nH]c3c1)nn2[C@H]1CC[C@H](N2CCOCC2)CC1`, the half-inhibitory concentration (IC50) in data set [1] was found to be 361 nM; in data set [2], 25 nM; in [3] it was 250 nM.
Take `COc1ccccc1Cc1nc2ccc(-c3nn([C@H]4CC[C@H](N5CCN(C(=O)N(C)C)CC5)CC4)c4ncnc(N)c34)cc2[nH]1`: the figures for the half-maximal effective concentration (EC50) in data set [4], in data set [5] and in data set [6] were 1580 nM, 208 nM and 808 nM, respectively. Further, the results for the half-maximal inhibitory concentration (IC50) in [1], in [2] and in [3] were 25 nM, 69 nM and 17 nM, respectively.
With `Nc1ncnc2c1c(-c1ccc3nc(Cc4ccccc4Cl)[nH]c3c1)nn2[C@H]1CC[C@H](N2CCOCC2)CC1`, the results for the IC50 in [1], in data set [2] and in data set [3] were 65 nM, 36 nM and 664 nM, respectively.
With `Nc1ncnc2c1c(-c1ccc3nc(Cc4ccccc4)[nH]c3c1)nn2[C@H]1CC[C@H](N2CCOCC2)CC1`, the IC50 was determined as 270 nM in [1] and 186 nM in data set [3].
With `COc1ccccc1Cc1nc2ccc(-c3nn([C@H]4CC[C@H](N5CCN(C(C)=O)CC5)CC4)c4ncnc(N)c34)cc2[nH]1`, the EC50 in data set [4] came to 660 nM; in [5], 143 nM; in [6] it was 742 nM. Besides, the IC50 in data set [1] stood at 130 nM; in [2], 27 nM; in [3], 59 nM.
As to `COc1ccccc1Cc1nc2ccc(-c3nn([C@H]4CC[C@H](N5CCNCC5)CC4)c4ncnc(N)c34)cc2[nH]1`, the EC50 was 210 nM in [4], 711 nM in data set [5] and 335 nM in [6]. For the same compound, the concentration for half-maximal inhibition (IC50) in data set [1] was found to be 30 nM; in data set [2], 26 nM; in data set [3], 44 nM.
Take `COCCCN1CCN([C@H]2CC[C@H](n3nc(-c4ccc5nc(Cc6ccccc6OC)[nH]c5c4)c4c(N)ncnc43)CC2)CC1`: the EC50 in data set [4] is 94 nM; in [5], 115 nM; in [6], 85 nM. Besides, the figures for the AUC in the data set with Mus musculus [7], in the data set with Mus musculus [10] and with Mus musculus [12] were 3.5 µmol·h/L/mg/kg, 2.71 µmol·h/L/mg/kg and 0.42 µmol·h/L/mg/kg, respectively. Besides, in data set [8], the solubility was greater than 30 µM. Besides, the inhibition result in the data set on Mus musculus [9], in the data set on Mus musculus [16], in the data set with Mus musculus [17] and in the data set with Mus musculus [18] was “Active” throughout. Moreover, the IC50 against Cytochrome P450 2C9 was greater than 20000 nM; against Cytochrome P450 3A4 it was greater than 20000 nM; in data set [1] it was 58 nM; against Cytochrome P450 2D6 it was 1600 nM; in data set [2], 81 nM; in [3] it was 54 nM. The bioavailability stood at 100% in data set [11] and 12% in data set [13]. The compound also had a half-life in data set [14] of 3.1 h. For the same compound, the fraction unbound in [15] was 0.033. In data set [19], this compound showed a clearance of 7.83 mL/min/kg.
For `COc1ccccc1Cc1nc2ccc(-c3nn([C@H]4CC[C@H](N5CCN(CC6CC6)CC5)CC4)c4ncnc(N)c34)cc2[nH]1`, the EC50 in data set [4] stood at 147 nM; in [5], 190 nM; in data set [6], 91 nM. The IC50 in data set [1] was 3 nM; in data set [2] it was 40 nM; in data set [3], 13 nM.
`COc1ccccc1Cc1nc2ccc(-c3nn([C@H]4CC[C@H](N5CCOCC5)CC4)c4ncnc(N)c34)cc2[nH]1` registered an IC50 in data set [3] of 53 nM.
Consider `CCOC(=O)N1CCN([C@H]2CC[C@H](n3nc(-c4ccc5nc(Cc6ccccc6OC)[nH]c5c4)c4c(N)ncnc43)CC2)CC1`, for which the figures for the EC50 in data set [4], in data set [5] and in data set [6] were 1600 nM, 247 nM and 520 nM, respectively. For the same compound, the IC50 came out at 30 nM in [1], 309 nM in data set [2] and 270 nM in [3].
